Experimental data from patent US9156828B2, “Tricyclic amidine derivatives as HIV attachment inhibitors” (priority 2012, dated 2015).
Where two headings read alike, the source gives them in different places.

System: HIV-1 LAI envelope single-round infectious reporter virus
Assay: Single-round infectious HIV-1 LAI luciferase reporter virus infection of MT2 cells
Type: cell-based
Conditions: Human immunodeficiency virus 1, MT2, 72 h
From the text: Virus Production— • Human embryonic Kidney cell line, 293T (HEK 293T), was propagated in Dulbecco's Modified Eagle Medium (Invitrogen, Carlsbad, Calif.) containing 10% fetal bovine serum (FBS, Sigma, St. Louis, Mo.). The human T-cell leukemia cell MT2 (AIDS Research and Reference Reagent Program, Cat. 237) was propagated in RPMI 1640 (Invitrogen, Carlsbad, Calif.) containing 10% fetal bovine serum (FBS, Hyclone, Logan, Utah)
Virus Infection— • Single-round infectious reporter virus was produced by co-transfecting HEK 293T cells with plasmide expressing the HIV-1 LAI envelope along with a plasmid containing an HIV-1 LAI proviral cDNA with the envelope gene replaced by a firefly luciferase reporter gene (Chen et al., Ref 41). Transfections were performed using lipofectAMINE PLUS reagent as described by the manufacturer (Invitrogen, Carlsbad, Calif.). Experimental Procedure • 1. MT2 cells were plated in black, 384 well plates at a cell density of 5×10^3 cells per well in […] RPMI 1640 containing 10% FBS. • 2. Compound (diluted in dimethylsulfoxide and growth medium) was added to cells at 12.5 μl/well, so that the final assay concentration would be […]. • 3. 12.5 μl of single-round infectious reporter virus in Dulbecco's Modified Eagle Medium was added to the plated cells and compound at an approximate multiplicity of infection (MOI) of 0.01, resulting in a final volume of 50 μl per well. • 4. Virus-infected cells were incubated at 37 degrees Celsius in a CO2 incubator and harvested 72 h after infection. • 5. Viral infection was monitored by measuring luciferase expression in the infected cells using a luciferase reporter gene assay kit (Steady-Glo, Promega, Madison, Wis.) as described by the manufacturer. Luciferase activity was then quantified by measuring luminescence using an EnVision Multilabel Plate Readers (PerkinElmer, Waltham, Mass.). • 6. The percent inhibition for each compound was calculated by quantifying the level of luciferase expression in cells infected in the presence of each compound as a percentage of that observed for cells infected in the absence of compound and subtracting such a determined value from 100. • 7. An EC50 provides a method for comparing the antiviral potency of the compounds herein. The effective concentration for fifty percent inhibition (EC50) was calculated with the Microsoft Excel Xlfit curve fitting software. For each compound, curves were generated from percent inhibition calculated at 10 different concentrations by using a four parameter logistic model (model 205). Table 1 is the key for the data in Table 2.

[1] = read-out: EC50 Group from Table 1

Structure (SMILES): O=C(C(=O)N1CCN(C2=Nc3ccccc3Oc3ccc(Cl)cc32)CC1)c1c[nH]c2ccccc12 [Compound 1001]
- EC50: 706 nM
- EC50 [1]: > 500 nM

Structure (SMILES): O=C(C(=O)N1CCN(C2=Nc3cc(Cl)ccc3Nc3ccccc32)CC1)c1c[nH]c2ccccc12 [Compound 1002]
- EC50 [1]: > 500 nM

Structure (SMILES): COc1cnc(-n2cncn2)c2[nH]cc(C(=O)C(=O)N3CCN(C4=Nc5ccccc5Oc5ccc(Cl)cc54)CC3)c12 [Compound 1003]
- EC50 [1]: < 500 nM

Structure (SMILES): O=C(C(=O)N1CCN(C2=Nc3ccccc3Oc3ccc(Cl)cc32)CC1)c1c[nH]c2c(Br)ccc(F)c12 [Compound 1004]
- EC50 [1]: > 500 nM

Structure (SMILES): COc1cnc(-n2cnc(C)n2)c2[nH]cc(C(=O)C(=O)N3CCN(C4=Nc5ccccc5Oc5ccc(Cl)cc54)CC3)c12 [Compound 1005]
- EC50: 1.83 nM
- EC50 [1]: < 500 nM

Structure (SMILES): COc1cnc(-n2cnc(C)n2)c2[nH]cc(C(=O)C(=O)N3CCN(C4=Nc5cc(Cl)ccc5Nc5ccccc54)CC3)c12 [Compound 1006]
- EC50 [1]: < 500 nM
